How the values were obtained:
Assay in all cases: fluorescence titration (intramolecular strand displacement)
Details in all cases: 6 mM MgCl2; apparent; 10 mM Tris-HCl pH 7.5, 25 °C
[1] = system: 25-7 ATP ISD FAM–Dab (DNA, aptamer, dabcyl-5-methyl-dC at 40 (3' end)) CACCTGGGGGAGTATTGCGGAGGAAGGTTTTTCCAGGTGC
[2] = system: 25-7 ATP ISD Cy3–BHQ-1 (DNA, aptamer) CACCTGGGGGAGTATTGCGGAGGAAGGTTTTTCCAGGTG
[3] = system: 25-7 ATP ISD Cy3–Dab (DNA, aptamer, dabcyl-5-methyl-dC at 40 (3' end)) CACCTGGGGGAGTATTGCGGAGGAAGGTTTTTCCAGGTGC
[4] = system: 25-7 ATP ISD FAM–BHQ-1 (DNA, aptamer) CACCTGGGGGAGTATTGCGGAGGAAGGTTTTTCCAGGTG

- Kd [1]: 1300 ± 600 µM
- Kd [2]: 460 ± 65 µM
- Kd [3]: 390 ± 83 µM
- Kd [4]: 1800 ± 1700 µM
Structure (SMILES): Nc1ncnc2c1ncn2[C@@H]1O[C@H](COP(=O)(O)OP(=O)(O)OP(=O)(O)O)[C@@H](O)[C@H]1O

From paper PMC12700101 (2025)
